In patent US20230172907A1, “SARS-COV-2 INHIBITORS” (priority 2021, published 2023):

System: SARS-CoV-2
Test: In vitro SARS-CoV-2 plaque inhibition assay in Vero E6 cells
Format: cell-based

## CC[C@H](NC(=O)[C@H](C)NC)C(=O)N1C[C@@H](O)C[C@H]1Cc1c(-c2[nH]c3cc(F)ccc3c2C[C@@H]2C[C@H](O)CN2C(=O)[C@H](CC)NC(=O)[C@H](C)NC)[nH]c2cc(F)ccc12 [Birinapant]
10 µM, 48 h
  reduction of the production of SARS-CoV-2 plaques: 37%
Severe acute respiratory syndrome coronavirus 2, Vero C1008, estimated, read-out: IC50 plaque formation
  IC50: 18 ± 3.6 µM

## COC(=O)N[C@H](C(=O)N[C@@H](Cc1ccccc1)[C@@H](O)CN(Cc1ccc(-c2ccccn2)cc1)NC(=O)[C@@H](NC(=O)OC)C(C)(C)C)C(C)(C)C [Atazanavir]
10 µM, 48 h
  antiviral effects (plaque inhibition): no antiviral effects
